The record followed here is article PMC7072606, “Discrimination of Naturally-Occurring 2-Arylbenzofurans as Cyclooxygenase-2 Inhibitors: Insights into the Binding Mode and Enzymatic Inhibitory Activity” (Biomolecules, 2020).

In this test the target is T1, bovine COX-2 (Bos taurus, UniProt O62698).
T1 sequence (O62698 18-604): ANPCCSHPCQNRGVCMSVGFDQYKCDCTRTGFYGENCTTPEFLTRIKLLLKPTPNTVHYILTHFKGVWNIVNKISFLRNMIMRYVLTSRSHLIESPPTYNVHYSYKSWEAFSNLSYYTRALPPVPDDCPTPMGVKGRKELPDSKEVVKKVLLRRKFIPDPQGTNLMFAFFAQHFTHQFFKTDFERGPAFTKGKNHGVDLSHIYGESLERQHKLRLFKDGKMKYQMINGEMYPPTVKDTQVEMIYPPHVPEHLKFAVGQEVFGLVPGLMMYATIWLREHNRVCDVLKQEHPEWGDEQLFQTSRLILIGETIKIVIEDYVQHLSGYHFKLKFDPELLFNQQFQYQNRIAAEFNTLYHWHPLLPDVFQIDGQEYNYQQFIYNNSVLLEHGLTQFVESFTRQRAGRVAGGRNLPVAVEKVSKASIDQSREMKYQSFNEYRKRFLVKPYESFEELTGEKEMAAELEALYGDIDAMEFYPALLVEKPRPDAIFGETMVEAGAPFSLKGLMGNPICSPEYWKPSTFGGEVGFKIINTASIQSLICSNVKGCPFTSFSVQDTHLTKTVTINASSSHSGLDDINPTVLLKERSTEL
Briefly: COX-2 inhibition assay, enzyme immunoassay (EIA) kit. It counts as biochemical. The settings on record: in-vitro. How it is done: The ability of selected compounds to inhibit bovine COX-2 was determined using an enzyme immunoassay (EIA) kit (Cayman Chemical Company, Ann Arbor, MI, USA), according to the reported method. The activity was expressed as half-maximal inhibitory concentrations, IC50 (in μM), obtained after non-linear regression, using the program GraphPad Prism version 5.00 (GraphPad Software, San Diego, CA, USA).

Regarding salvianolic acid B [Compound 51], the IC50 (in general, the concentration at which inhibition is half-maximal) was 10.5 µM.
